Measured values from patent publication US20190252037A1 (priority 2016, published 2019).

Test system: FluB polymerase K631A+R634A
Format: binding, human influenza B/Memphis/13/03

Pol II CTD peptide, four heptad repeats Tyr-Ser-Pro-Thr-SerP-Pro-Ser (28 amino acids), FAM-labelled at the N-terminal end for binding assays (Covalab) [28-mer SeP5 peptide]
decrease in the binding affinity compared to wild type: 2.5 fold
